# Patent publication US11932636B2, “RAD51 inhibitors” (Cyteir Therapeutics, Inc., priority 2019, dated 2024)
# Tested on: Daudi cells (AID positive)
# Test: Compound primary screening: cell death in AID positive Daudi cells (Cell-Titer Glo, Day 7)
# Type: cell-based
# Settings: Homo sapiens, 168 h; Daudi cells, AID positive; cell death on Day 7, Cell-Titer Glo; read-out: Cellular activity in AID + (Daudi)
# Description: Example 149. Compound Primary Screening
# AID expressing cells are dependent upon RAD51 for survival; inhibiting RAD51 in AID positive cells results in a cytotoxic effect.
# A 96 well u-bottom plate was prepared by writing the experiment number, plate number, date and initials in the top right corner of the plate lid. With a sterile 300 ml reservoir, and 25 ml serological pipette, evaporation buffer media was pipetted into reservoir in 25 ml increments. Using the liquid handler, 150 ul of evaporation buffer media was pipetted from reservoir into rows A and H, and Columns 1 and 12 of the 96 well u-bottom plate. Cell cultures were counted to obtain the density of cells per ml, and the culture viability. The cell density information was used to obtain 1,000,000 cells from culture using a 5 mL serological pipette into an epi tube. The cell density information from the culture was used to calculate the number of cells and volume of media needed for the assay to seed 1250 cells in 130 ul of media per available culture well in the 96 well u-bottom plate. Rows B through F were used for cells (50 wells in total), with row G left for an empty media control. The calculation was overestimated by 10 mL to account for the dead volume in the 300 ml reservoir. Once the media volume was calculated, the appropriate volume of media was pipetted in 25 mL increments into the 250 mL bottle using a 25 mL serological pipette. The 250 ml bottle was capped tightly, and placed into a 37° C. water bath for 2 minutes. While the culture media was warming, 10 mL of fresh media was pipetted from the 500 mL culture media bottle into a sterile 25 mL reservoir. Using the Eppendorf multichannel pipette, 130 ul of media was pipetted from the 25 mL reservoir into row G of the 96 well u-bottom plate. Once the 250 mL bottle of media was warmed, the volume of culture needed was pipetted into the bottle, and mixed gently with a 25 mL serological pipette as to not create bubbles, and then the contents of the bottle were pipetted into a new 300 mL reservoir. Using the liquid handler, 130 ul of culture was pipetted from the 300 mL reservoir into rows B through F of the 96 well u-bottom plate. Once the culture was added, the plate was placed into a 37° C. incubator until the compound master plate was prepared for use.
# Two 96 well u-bottom plates were prepared by writing the master plate name in the upper right corner of the plate lid. Labeling one DMSO master and the other Media Master. The compounds of interest were obtained from the laboratory freezer, and placed into a 25 well storage box with a lid, and set the box aside. The compounds were vortexed after thawing but before use. Using an automatic multichannel pipette, 20 ul of 100% DMSO was pipetted into wells B3-B11 through G3-G11 of the DMSO master plate. For each compound on the master plate, 50 ul of the compound were pipetted in the appropriate well of row 2 (reference plate map to determine appropriate well). A serial dilution was prepared beginning by aspirating 20 ul from row 2 and mixing with row 3, repeating until row 11 was reached. Using the liquid handler, 194 ul of Daudi media was dispensed into wells B2-B11 through G2-G11 of the Media master plate. Using the liquid handler, 6 ul from the DMSO master plate was aspirated and dispensed into the media master plate, mixing 100 ul twice.
# Compounds from master plate were then added to the culture plate. The culture plates were removed from the incubator, and set inside the biosafety cabinet. Using a liquid handler, 20 ul from wells B2 to B11 through G2 to G11 of master plate were aspirated, and dispensed into wells B2 to B11 through G2 to G11 of culture plate. This set was continued with each culture plate. Once the culture plates acquired their 20 ul of compound dilutions, they were placed back into the incubator, until their reads on Day 7 of experiment.
# Cell death was measured on Day 7 of the experiment using Cell-Titer Glo and a Promega Plate reader.
row,SMILES,EC50
1,"CCNS(=O)(=O)c1cc(COCC(C)C)ccc1-c1cnc([C@H]2CC[C@H](NC(=O)OC3COC3)CC2)s1 [Compound 52, oxetan-3-yl trans-N-[4-[5-[2-(ethylsulfamoyl)-4-(isobutoxy-methyl)phenyl]thiazol-2-yl]cyclohexyl]carbamate]",100 to 1000 nM
2,"CC(C)OC(=O)N[C@H]1CC[C@H](c2ncc(-c3ccc(C#N)cc3S(=O)(=O)N3CCC3)s2)CC1 [Compound 54, isopropyl trans-N-[4-[5-[2-(azetidin-1-ylsulfonyl)-4-cyano-phenyl]thiazol-2-yl]cyclohexyl]carbamate]",1000 to 10000 nM
3,"CCNS(=O)(=O)c1cc(Nc2ncc[nH]2)ccc1-c1cnc([C@H]2CC[C@H](NC(=O)OC(C)C)CC2)s1 [Compound 56, isopropyl trans-N-[4-[5-[2-(ethylsulfamoyl)-4-(1H-imidazol-2-ylamino)phenyl]thiazol-2-yl]cyclohexyl]carbamate]",< 100 nM
4,"CCNS(=O)(=O)c1cc(CC(=O)NC(C)C)ccc1-c1cnc([C@H]2CC[C@H](NC(=O)OC(C)C)CC2)s1 [Compound 58, isopropyl trans-N-[4-[5-[2-(ethylsulfamoyl)-4-[2-(isopropylamino)-2-oxo-ethyl]phenyl]thiazol-2-yl]cyclohexyl]carbamate]",100 to 1000 nM
5,"CCNS(=O)(=O)c1cc(CC(=O)NC(C)C)ccc1-c1cnc([C@H]2CC[C@H](NC(=O)OC3COC3)CC2)s1 [Compound 59, oxetan-3-yl (trans-4-(5-(2-(N-ethylsulfamoyl)-4-(2-(isopropylamino)-2-oxoethyl)phenyl)thiazol-2-yl)cyclohexyl)carbamate]",100 to 1000 nM
6,"CCNS(=O)(=O)c1cc(Nc2ncco2)ccc1-c1cnc([C@H]2CC[C@H](NC(=O)OC(C)C)CC2)s1 [Compound 60, isopropyl (trans-4-(5-(2-(N-ethylsulfamoyl)-4-(oxazol-2-ylamino)phenyl)thiazol-2-yl)cyclohexyl)carbamate]",< 100 nM
7,"CCNS(=O)(=O)c1cc(C(=O)O)ccc1-c1cnc([C@H]2CC[C@H](NC(=O)OC3COC3)CC2)s1 [Compound 66, trans-3-(ethylsulfamoyl)-4-[2-[4-(oxetan-3-yloxy-carbonylamino)cyclohexyl]thiazol-5-yl]benzoic acid]",1000 to 10000 nM
8,"CCNS(=O)(=O)c1cc(C(N)=O)ccc1-c1cnc([C@H]2CC[C@H](NC(=O)OC3COC3)CC2)s1 [Compound 67, oxetan-3-yl trans-N-[4-[5-[4-carbamoyl-2-(ethylsulfamoyl)phenyl]thiazol-2-yl]cyclohexyl]carbamate]",1000 to 10000 nM
9,"CCNS(=O)(=O)c1cc(C(=O)NC(C)C)ccc1-c1cnc([C@H]2CC[C@H](NC(=O)OC3COC3)CC2)s1 [Compound 68, oxetan-3-yl (trans-4-(5-(2-(N-ethylsulfamoyl)-4-(isopropylcarbamoyl)phenyl)thiazol-2-yl)cyclohexyl)carbamate]",100 to 1000 nM
10,"CCNS(=O)(=O)c1cc(NC2(C(C)C)COC2)ccc1-c1cnc([C@H]2CC[C@H](NC(=O)OC(C)C)CC2)s1 [Compound 69, isopropyl trans-N-[4-[5-[2-(ethylsulfamoyl)-4-[(3-isopropyloxetan-3-yl)amino]phenyl]thiazol-2-yl]cyclohexyl]carbamate]",< 100 nM
11,"CCNS(=O)(=O)c1cc(NC2(CC(C)C)COC2)ccc1-c1cnc([C@H]2CC[C@H](NC(=O)OC(C)C)CC2)s1 [Compound 70, isopropyl trans-N-[4-[5-[2-(ethylsulfamoyl)-4-[(3-isobutyloxetan-3-yl)amino]phenyl]thiazol-2-yl]cyclohexyl]carbamate]",100 to 1000 nM
12,"CCNS(=O)(=O)c1cc(C(=O)OC)ccc1-c1cnc([C@H]2CC[C@H](NC(=O)OC(C)C)CC2)s1 [Compound 71, methyl trans-3-(ethylsulfamoyl)-4-[2-[4-(isopropoxycarbonyl-amino)cyclohexyl]thiazol-5-yl]benzoate]",1000 to 10000 nM
13,"CCNS(=O)(=O)c1cc(CO)ccc1-c1cnc([C@H]2CC[C@H](NC(=O)OC(C)C)CC2)s1 [Compound 72, isopropyl trans-N-[4-[5-[2-(ethylsulfamoyl)-4-(hydroxymethyl)phenyl]thiazol-2-yl]cyclohexyl]carbamate]",1000 to 10000 nM
14,"CCNS(=O)(=O)c1cc(CNc2ncc[nH]2)ccc1-c1cnc([C@H]2CC[C@H](NC(=O)OC(C)C)CC2)s1 [Compound 73, isopropyl trans-N-[4-[5-[2-(ethylsulfamoyl)-4-[(1H-imidazol-2-ylamino)methyl]phenyl]thiazol-2-yl]cyclohexyl]carbamate]",1000 to 10000 nM
15,"CCNS(=O)(=O)c1cc(CNc2ncco2)ccc1-c1cnc([C@H]2CC[C@H](NC(=O)OC(C)C)CC2)s1 [Compound 74, isopropyl trans-N-[4-[5-[2-(ethylsulfamoyl)-4-[(oxazol-2-ylamino)methyl]phenyl]thiazol-2-yl]cyclohexyl]carbamate]",100 to 1000 nM
16,"CCNS(=O)(=O)c1cc(-c2ncc[nH]2)ccc1-c1cnc([C@H]2CC[C@H](NC(=O)OC(C)C)CC2)s1 [Compound 75, isopropyl trans-N-[4-[5-[2-(ethylsulfamoyl)-4-(1H-imidazol-2-yl)phenyl]thiazol-2-yl]cyclohexyl]carbamate]",1000 to 10000 nM
17,"CCNS(=O)(=O)c1cc(CC(=O)OC)ccc1-c1cnc([C@H]2CC[C@H](NC(=O)OC(C)C)CC2)s1 [Compound 76, methyl trans-2-[3-(ethylsulfamoyl)-4-[2-[4-(isopropoxycarbonylamino)cyclohexyl]thiazol-5-yl]phenyl]acetate]",1000 to 10000 nM
18,"CCNS(=O)(=O)c1cc(CC(=O)O)ccc1-c1cnc([C@H]2CC[C@H](NC(=O)OC(C)C)CC2)s1 [Compound 77, trans-2-[3-(ethylsulfamoyl)-4-[2-[4-(isopropoxycarbonyl-amino)cyclohexyl]thiazol-5-yl]phenyl]acetic Acid]",1000 to 10000 nM
19,"CCNS(=O)(=O)c1cc(Cc2ncc[nH]2)ccc1-c1cnc([C@H]2CC[C@H](NC(=O)OC(C)C)CC2)s1 [Compound 78, isopropyl trans-N-[4-[5-[2-(ethylsulfamoyl)-4-(1H-imidazol-2-ylmethyl)phenyl]thiazol-2-yl]cyclohexyl]carbamate]",1000 to 10000 nM
20,"CCNS(=O)(=O)c1cc(CC(=O)NCc2ccccc2)ccc1-c1cnc([C@H]2CC[C@H](NC(=O)OC(C)C)CC2)s1 [Compound 79, isopropyl trans-N-[4-[5-[4-[2-(benzylamino)-2-oxo-ethyl]-2-(ethyl-sulfamoyl)phenyl]thiazol-2-yl]cyclohexyl]carbamate]",< 100 nM
21,"CCNS(=O)(=O)c1cc(CC(=O)N(C)C(C)C)ccc1-c1cnc([C@H]2CC[C@H](NC(=O)OC(C)C)CC2)s1 [Compound 80, isopropyl trans-N-[4-[5-[4-[2-(isopropyl(methyl)amino)-2-oxo-ethyl]-2-(ethyl-sulfamoyl)phenyl]thiazol-2-yl]cyclohexyl]carbamate]",100 to 1000 nM
22,"CCNS(=O)(=O)c1cc(CC(=O)N(C)Cc2ccccc2)ccc1-c1cnc([C@H]2CC[C@H](NC(=O)OC(C)C)CC2)s1 [Compound 81, isopropyl trans-N-[4-[5-[4-[2-(benzyl(methyl)amino)-2-oxo-ethyl]-2-(ethyl-sulfamoyl)phenyl]thiazol-2-yl]cyclohexyl]carbamate]",100 to 1000 nM
23,"CCNS(=O)(=O)c1cc(CC(=O)N2CCCC2)ccc1-c1cnc([C@H]2CC[C@H](NC(=O)OC(C)C)CC2)s1 [Compound 82, isopropyl trans-N-[4-[5-[4-[2-oxo-2-(pyrrolidin-1-yl)ethyl]-2-(ethyl-sulfamoyl)phenyl]thiazol-2-yl]cyclohexyl]carbamate]",100 to 1000 nM
